Measurements reported in US6646137B1, “Non-peptide GnRH agents” (priority 1998, dated 2003).
Read-outs that look alike come from different tables or passages of the source.

Target: T1, human GnRH receptor (Homo sapiens, UniProt P30968)
T1 construct: The cDNA for the human GnRH receptor is cloned into the plasmid expression vector, pcDNA 3; expressed in transfected cells; host or cells: HEK 293 cells, stably transfected (pcDNA 3); membrane preparation
T1 sequence (P30968 1-328): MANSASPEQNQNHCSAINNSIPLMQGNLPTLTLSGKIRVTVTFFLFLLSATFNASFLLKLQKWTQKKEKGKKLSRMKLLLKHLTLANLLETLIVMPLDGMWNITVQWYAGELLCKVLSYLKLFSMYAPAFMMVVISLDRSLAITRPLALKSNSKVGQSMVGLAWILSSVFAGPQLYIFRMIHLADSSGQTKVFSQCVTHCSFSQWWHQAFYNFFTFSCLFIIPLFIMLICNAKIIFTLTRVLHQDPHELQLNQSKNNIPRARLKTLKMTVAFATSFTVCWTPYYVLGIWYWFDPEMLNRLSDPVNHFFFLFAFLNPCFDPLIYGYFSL
Test: GnRH receptor competitive radioligand binding assay (125I-GnRH-A, HEK 293 cell membranes)
Conditions: compound at 10 μM
Description: The cDNA for the human GnRH receptor is cloned into the plasmid expression vector, pcDNA 3 (In Vitrogen), and stably transfected in HEK 293 cells (a cell line developed by Dr. Stuart Sealfon, Mount Sinai Medical School, New York, N.Y.).
The human GnRH receptor (hGnRH) is cloned into pcDNA 3 (In Vitrogen), which provides high-level expression and a neomycin resistance marker. Lipofectamine (GIBCO BRL) is used to transfect HEK 293 cells with plasmid DNA. This method involves mixing the plasmid and reagent in serum-free medium, allowing DNA-liposome complexes to form, and overlaying cells with this solution. The HEK 293 cells are plated (seeded) on a 10-cm tissue culture dish at a density of 3×10^6 cells/dish the day before transfection. For each plate, 8 μg DNA plus 0.8 mL serum-free medium is mixed with 48 μL lipofectamine plus 0.8 mL serum-free medium, followed by incubation for 30 minutes at room temperature to allow DNA-liposome complexes to form. Serum-free medium is added to give a final volume of 6 mL/plate. The cells are rinsed twice with serum-free medium and overlayed with the DNA-liposome mixture. Five hours after transfection, an equal volume (6 mL) of medium containing 20% FBS (fetal bovine serum) is added. The cells are fed with fresh complete medium 18-24 hours after transfection. The cells are split 72 hours following transfection, at densities of 1:10 and 1:20. Stable tranformants are selected for by growth of the cells in antibiotic containing medium (G418, Sigma Chemical Company (also known as Geneticin)). Colonies are isolated and tested for receptor expression by radioligand binding and by measuring phosphoinositol turnover.
HEK 293 cells stably transfected with human GnRH receptors as described above are grown in MEM (minimal essential medium, available from Sigma Chemical Company) supplemented with 0.1% G418 (Sigma Chemical Company). Cells are homogenized in buffer A containing 50 mM Tris (pH 74.), 0.32M sucrose, 2 mM ethyleneglycol-bis(β-aminoethyl)-N,N,N′,N′-tetraacetic acid (EGTA), 1 mM phenylmethylsulfonyl fluoride (PMSF), 5 μg/mL aprotinen, 5 μg/mL Pepstatin A, and 1 μg/mL leupeptin. The homogenized cells are centrifuged at 4° C. at 20,000×g for 25 minutes, resuspended in buffer A, and recentrifuged at 4° C. at 20,000×g for an additional 25 minutes. Total membrane protein is determined with a BCA kit (Pierce, Rockford, Ill.). Membranes are stored at −70° C. at a final membrane protein concentration of 5 mg/mL.
The radioiodinated agonist analog of GnRH, [des-Gly^10, D-Ala^8]GnRH ethylamide (GnRH-A), is used as the labeled ligand. One μg of GnRH-A diluted in 0.1M acetic acid is added to an lodogen®-coated borosilicate glass tube pierce) containing 35 μL of 0.05M phosphate buffer (pH 7.4-7.6) and 1 mCi of Na[^125I]. The reaction mixture is vortexed and incubated for 1 minute at room temperature. After one minute, the mixture is vortexed again and allowed to incubate for an additional minute. Two mL of 0.5M acetic acid/1% BSA is added to the reaction tube, and the mixture is added to a C18 Sep-Pak cartridge. The cartridge is washed with subsequent washes of 5 mL H2O and 5 mL 0.5M acetic acid, and then eluted with 5×1 mL of 60% CH3CN/40% 0.5M acetic acid. The eluant is diluted with 3×volume of HPLC buffer A (0.1% TFA in H2O) and loaded onto a C18 column. The iodinated product is eluted over 20-25 minutes with a gradient of 25-100% CH3CN containing 0.1% TFA. The radioactive fractions (750 μL/fraction) are collected into clean polypropylene tubes containing 10 μL of 10% BSA. Fractions are assessed for biological activity by radioligand binding. Active fractions are utilized to screen the compounds for competitive binding assays.
HEK 293 cell membranes stably expressing hGnRHR (human GnRH receptors) are diluted to 0.5-1.0 mg/mL with assay buffer containing 50 mM HEPES (pH 7.4), 1 mM ethylenediarninetetraacetic acid (EDTA), 2.5 mM MgCl2, and 0.1% BSA. […]

[1] = average of 1st and 2nd test, read-out: Average % Remaining (percent of specific binding remaining)
[2] = crude compounds, 125I-GnRH-A, lower value = higher inhibition, read-out: % Remaining 1st Test (percent of specific binding remaining)
[3] = crude compounds, 125I-GnRH-A, lower value = higher inhibition, read-out: % Remaining 2nd Test (percent of specific binding remaining)

| SMILES | remaining activity at 10 µM [1] | remaining activity at 10 µM [2] | remaining activity at 10 µM [3] |
| --- | --- | --- | --- |
| CN(C)Cc1ccc(CN(CC2C=CCC3C4CC=CCC4OC23)C(=O)c2ccc3ccccc3c2)cc1 (stereo not drawn) [Compound 68] | 48% | 61% | 44% |
| CN(C)Cc1ccc(CN(Cc2ccc(OCc3ccccc3)c(OCc3ccccc3)c2)C(=O)c2cccs2)cc1 [Compound 69] | 57% | 59% | 54% |
| CN(C)Cc1ccc(CN(Cc2ccc(OCc3ccccc3)c(OCc3ccccc3)c2)C(=O)c2ccco2)cc1 [Compound 70] | 45% | 47% | 48% |
| CC(C)(C)c1ccc(CN(CC2CCC(CNC(=N)N)CC2)C(=O)C2CCCC2)cc1 (stereo not drawn) [Compound 73] | 58% | 59% | 57% |
| N=C(N)NCC1CCC(CN(Cc2cccc(Oc3ccc(Cl)cc3)c2)C(=O)c2ccc(Cl)nc2)CC1 (stereo not drawn) [Compound 76] | 60% | 60% | 60% |
| N=C(N)NCC1CCC(CN(Cc2cccc(Oc3ccc(Cl)cc3)c2)C(=O)C2CCCC2)CC1 (stereo not drawn) [Compound 77] | 52% | 48% | 56% |
| N=C(N)NCC1CCC(CN(CC23CC=CCC2C2CC=CCC2O3)C(=O)c2cc3ccccc3s2)CC1 (stereo not drawn) [Compound 78] | 59% | 59% | 58% |

Other lines, results leading:

| remaining activity at 10 µM [1] | remaining activity at 10 µM [2] | remaining activity at 10 µM [3] | SMILES |
| --- | --- | --- | --- |
| 60% | 54% | 65% | CC(C)(C)c1ccc(CN(CC2CCC(CNC(=N)N)CC2)C(=O)c2ccco2)cc1 (stereo not drawn) [Compound 71] |
| 52% | 49% | 54% | CC(C)(C)c1ccc(CN(CC2CCC(CNC(=N)N)CC2)C(=O)c2cc3ccccc3s2)cc1 (stereo not drawn) [Compound 72] |
| 50% | 51% | 48% | CN(C)COc1ccc(CN(CC2CCC(CNC(=N)N)CC2)C(=O)c2cc3ccccc3s2)cc1 (stereo not drawn) [Compound 74] |
| 59% | 59% | 58% | CC(=O)N(Cc1cccc(Oc2ccc(Cl)cc2)c1)CC1CCC(CNC(=N)N)CC1 (stereo not drawn) [Compound 75] |
| 49% | 50% | 48% | Cc1cc2c(cc1CN(CC1CCC(CNC(=N)N)CC1)C(=O)c1ccc([N+](=O)[O-])o1)C(C)(C)CCC2(C)C (stereo not drawn) [Compound 79] |
| -4% | -4% | -4% | Cc1cc2c(cc1CN(CC1CCC(CNC(=N)N)CC1)C(=O)c1ccco1)C(C)(C)CCC2(C)C (stereo not drawn) [Compound 80] |
| 27% | 28% | 25% | Cc1cc2c(cc1CN(CC1CCC(CNC(=N)N)CC1)C(=O)COCc1ccccc1)C(C)(C)CCC2(C)C (stereo not drawn) [Compound 81] |
| 41% | 46% | 35% | COCC(=O)N(Cc1cc2c(cc1C)C(C)(C)CCC2(C)C)CC1CCC(CNC(=N)N)CC1 (stereo not drawn) [Compound 82] |
